Data reported in patent US10670605B2, “Cysteine reactive probes and uses thereof” (The Scripps Research Institute, priority 2015, dated 2020).

Tests used:
Assay in all cases: Competitive isoTOP-ABPP in situ (fragment-treated cells)
Format in all cases: cell-based
[1] = target: T1, cysteines in MDA-MB-231 and Ramos cells (Homo sapiens, UniProt O95229)
T1 sequence (O95229 1-277): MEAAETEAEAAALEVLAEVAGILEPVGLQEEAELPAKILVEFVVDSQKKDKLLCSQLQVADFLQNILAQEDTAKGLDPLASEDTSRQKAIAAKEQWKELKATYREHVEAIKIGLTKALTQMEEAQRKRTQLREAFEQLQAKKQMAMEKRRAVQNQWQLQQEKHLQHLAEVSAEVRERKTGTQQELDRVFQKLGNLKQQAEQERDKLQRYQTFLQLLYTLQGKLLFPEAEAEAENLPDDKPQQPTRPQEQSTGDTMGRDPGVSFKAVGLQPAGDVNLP

[2] = target: T2, cysteines in MDA-MB-231 and Ramos cells (Homo sapiens, UniProt P10599)
T2 sequence (P10599 1-105): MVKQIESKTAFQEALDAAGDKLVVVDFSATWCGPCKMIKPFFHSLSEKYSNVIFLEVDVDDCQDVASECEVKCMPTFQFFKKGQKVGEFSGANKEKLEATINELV

[3] = target: cysteines in MDA-MB-231 and Ramos cells (Homo sapiens, UniProt P38606)
[4] = target: T3, cysteines in MDA-MB-231 and Ramos cells (Homo sapiens, UniProt P52597)
T3 sequence (P52597 1-415): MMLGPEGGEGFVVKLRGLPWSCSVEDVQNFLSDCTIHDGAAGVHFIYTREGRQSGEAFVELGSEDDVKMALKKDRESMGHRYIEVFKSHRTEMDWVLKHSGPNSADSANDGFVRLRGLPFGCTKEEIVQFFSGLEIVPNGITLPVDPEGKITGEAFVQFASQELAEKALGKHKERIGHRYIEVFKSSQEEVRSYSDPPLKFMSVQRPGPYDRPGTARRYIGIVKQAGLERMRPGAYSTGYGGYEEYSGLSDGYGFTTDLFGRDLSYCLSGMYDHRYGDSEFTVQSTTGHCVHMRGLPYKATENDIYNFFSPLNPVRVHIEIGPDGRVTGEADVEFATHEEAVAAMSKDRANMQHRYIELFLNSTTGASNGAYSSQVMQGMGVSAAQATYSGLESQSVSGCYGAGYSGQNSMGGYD

[5] = target: T4, cysteines in MDA-MB-231 and Ramos cells (Homo sapiens, UniProt Q09161)
T4 sequence (Q09161 1-790): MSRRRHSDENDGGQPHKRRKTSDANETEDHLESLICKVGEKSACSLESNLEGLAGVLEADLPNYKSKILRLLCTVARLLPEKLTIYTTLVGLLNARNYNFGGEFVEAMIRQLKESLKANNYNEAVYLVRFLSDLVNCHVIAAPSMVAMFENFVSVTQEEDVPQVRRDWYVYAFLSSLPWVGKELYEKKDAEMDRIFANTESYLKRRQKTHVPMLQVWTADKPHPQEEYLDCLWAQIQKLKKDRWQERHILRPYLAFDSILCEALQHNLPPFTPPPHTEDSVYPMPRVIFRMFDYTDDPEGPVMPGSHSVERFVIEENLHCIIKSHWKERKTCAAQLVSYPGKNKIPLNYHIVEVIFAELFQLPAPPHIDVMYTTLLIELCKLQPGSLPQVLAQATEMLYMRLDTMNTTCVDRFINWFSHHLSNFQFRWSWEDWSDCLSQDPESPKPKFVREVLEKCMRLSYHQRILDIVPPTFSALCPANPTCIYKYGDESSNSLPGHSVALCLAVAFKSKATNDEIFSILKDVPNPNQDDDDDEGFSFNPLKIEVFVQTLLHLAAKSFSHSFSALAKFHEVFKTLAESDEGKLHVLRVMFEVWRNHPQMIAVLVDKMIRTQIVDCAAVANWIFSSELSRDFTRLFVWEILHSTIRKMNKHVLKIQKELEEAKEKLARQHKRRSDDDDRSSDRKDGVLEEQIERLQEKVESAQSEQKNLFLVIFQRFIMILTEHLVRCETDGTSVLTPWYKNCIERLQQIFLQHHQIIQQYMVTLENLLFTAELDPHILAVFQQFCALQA

[6] = target: cysteines in MDA-MB-231 and Ramos cells (Homo sapiens, UniProt Q93009)
[7] = target: T5, cysteines in MDA-MB-231 and Ramos cells (Homo sapiens, UniProt Q99757)
T5 sequence (Q99757 60-166): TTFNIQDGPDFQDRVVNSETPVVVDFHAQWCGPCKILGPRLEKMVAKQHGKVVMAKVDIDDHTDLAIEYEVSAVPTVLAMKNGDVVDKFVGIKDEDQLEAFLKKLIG

[8] = target: T6, cysteines in MDA-MB-231 and Ramos cells (Homo sapiens, UniProt Q9BVC5)
T6 sequence (Q9BVC5 1-232): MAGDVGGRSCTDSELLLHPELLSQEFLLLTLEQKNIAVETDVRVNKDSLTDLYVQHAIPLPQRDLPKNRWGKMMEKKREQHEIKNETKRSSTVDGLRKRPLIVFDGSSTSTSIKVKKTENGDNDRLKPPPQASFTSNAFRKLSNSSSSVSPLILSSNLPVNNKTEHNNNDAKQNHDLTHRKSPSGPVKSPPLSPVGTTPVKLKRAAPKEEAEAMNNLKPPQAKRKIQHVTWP

[9] = target: T7, cysteines in MDA-MB-231 and Ramos cells (Homo sapiens, UniProt Q9HAV7)
T7 sequence (Q9HAV7 28-217): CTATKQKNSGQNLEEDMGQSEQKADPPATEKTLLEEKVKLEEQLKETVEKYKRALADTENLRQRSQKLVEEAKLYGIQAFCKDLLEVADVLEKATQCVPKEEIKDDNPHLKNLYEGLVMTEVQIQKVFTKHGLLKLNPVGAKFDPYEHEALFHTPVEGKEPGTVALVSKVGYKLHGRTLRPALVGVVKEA

cysteines in MDA-MB-231 and Ramos cells (Homo sapiens, UniProt P38606), sequence (P38606 whole entry): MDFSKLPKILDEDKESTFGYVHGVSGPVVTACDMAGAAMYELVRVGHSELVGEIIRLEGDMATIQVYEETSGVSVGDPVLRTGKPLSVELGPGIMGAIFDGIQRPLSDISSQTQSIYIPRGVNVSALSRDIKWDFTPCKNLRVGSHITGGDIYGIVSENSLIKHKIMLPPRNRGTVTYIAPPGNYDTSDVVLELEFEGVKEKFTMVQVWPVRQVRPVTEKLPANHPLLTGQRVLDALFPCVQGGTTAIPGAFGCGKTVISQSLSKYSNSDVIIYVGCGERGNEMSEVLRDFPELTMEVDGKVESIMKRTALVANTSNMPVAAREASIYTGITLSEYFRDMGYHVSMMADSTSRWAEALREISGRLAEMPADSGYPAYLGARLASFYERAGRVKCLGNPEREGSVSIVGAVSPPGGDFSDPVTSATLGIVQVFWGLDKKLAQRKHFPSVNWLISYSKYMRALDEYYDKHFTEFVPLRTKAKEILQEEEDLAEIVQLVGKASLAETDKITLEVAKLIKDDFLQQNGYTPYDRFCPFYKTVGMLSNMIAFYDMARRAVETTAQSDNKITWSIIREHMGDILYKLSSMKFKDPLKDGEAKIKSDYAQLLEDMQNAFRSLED
cysteines in MDA-MB-231 and Ramos cells (Homo sapiens, UniProt Q93009), sequence (Q93009 whole entry): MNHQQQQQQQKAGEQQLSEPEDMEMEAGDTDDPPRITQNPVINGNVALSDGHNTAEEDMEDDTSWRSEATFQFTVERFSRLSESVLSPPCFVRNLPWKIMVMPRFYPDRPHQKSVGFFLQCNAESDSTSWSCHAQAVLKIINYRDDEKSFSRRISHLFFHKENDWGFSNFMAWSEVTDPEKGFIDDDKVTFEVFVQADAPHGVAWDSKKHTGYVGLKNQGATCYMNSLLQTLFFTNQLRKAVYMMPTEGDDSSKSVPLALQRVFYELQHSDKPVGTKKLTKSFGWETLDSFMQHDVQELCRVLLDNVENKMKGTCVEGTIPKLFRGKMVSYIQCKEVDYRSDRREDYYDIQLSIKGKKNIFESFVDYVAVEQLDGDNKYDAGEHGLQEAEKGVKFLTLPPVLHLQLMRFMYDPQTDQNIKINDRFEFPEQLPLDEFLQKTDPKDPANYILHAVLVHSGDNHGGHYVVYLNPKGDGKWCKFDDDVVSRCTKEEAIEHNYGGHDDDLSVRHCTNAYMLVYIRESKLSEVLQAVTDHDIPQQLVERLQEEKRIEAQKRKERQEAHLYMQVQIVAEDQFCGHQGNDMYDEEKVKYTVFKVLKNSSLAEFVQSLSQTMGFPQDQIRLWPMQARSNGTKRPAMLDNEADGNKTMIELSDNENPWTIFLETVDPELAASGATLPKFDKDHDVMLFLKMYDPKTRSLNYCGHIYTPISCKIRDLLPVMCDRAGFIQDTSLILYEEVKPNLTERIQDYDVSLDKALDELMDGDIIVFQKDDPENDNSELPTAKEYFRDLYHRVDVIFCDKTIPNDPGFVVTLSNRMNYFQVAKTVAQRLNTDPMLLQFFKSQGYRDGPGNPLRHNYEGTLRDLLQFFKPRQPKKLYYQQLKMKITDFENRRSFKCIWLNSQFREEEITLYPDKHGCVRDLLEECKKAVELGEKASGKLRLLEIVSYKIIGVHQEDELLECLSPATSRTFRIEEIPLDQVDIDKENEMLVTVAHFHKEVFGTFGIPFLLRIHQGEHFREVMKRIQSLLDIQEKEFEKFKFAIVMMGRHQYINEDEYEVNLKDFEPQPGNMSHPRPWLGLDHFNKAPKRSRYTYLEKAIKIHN

Structure (SMILES): O=C(CCl)NC(=O)NC12CC3CC(CC(C3)C1)C2 [compound 12]
- isoTOP-ABPP ratio O95229_C54 ([1]; 200 μM, insitu, 231): 20.0
- isoTOP-ABPP ratio P10599_C32 ([2]; 200 μM, insitu, 231): 20.0
- isoTOP-ABPP ratio P38606_C138 ([3]; 200 μM, insitu, 231): 20.0
- isoTOP-ABPP ratio P52597_C267 ([4]; 200 μM, insitu, 231): 6.8
- isoTOP-ABPP ratio Q09161_C44 ([5]; 200 μM, insitu, 231): 4.7
- isoTOP-ABPP ratio Q93009_C223 ([6]; 200 μM, insitu, 231): 3.1
- isoTOP-ABPP ratio Q99757_C90 ([7]; 200 μM, insitu, 231): 5.0
- isoTOP-ABPP ratio Q9BVC5_C10 ([8]; 200 μM, insitu, 231): 2.9
- isoTOP-ABPP ratio Q9HAV7_C124 ([9]; 200 μM, insitu, 231): 1.1

Structure (SMILES): CC(C)CCOCCNC(=O)CCl [compound 27]
- isoTOP-ABPP ratio O95229_C54 ([1]; 200 μM, insitu, 231): 0.5
- isoTOP-ABPP ratio P10599_C32 ([2]; 200 μM, insitu, 231): 2.5
- isoTOP-ABPP ratio P38606_C138 ([3]; 200 μM, insitu, 231): 4.6
- isoTOP-ABPP ratio P52597_C267 ([4]; 200 μM, insitu, 231): 1.0
- isoTOP-ABPP ratio Q09161_C44 ([5]; 200 μM, insitu, 231): 0.8
- isoTOP-ABPP ratio Q93009_C223 ([6]; 200 μM, insitu, 231): 1.1
- isoTOP-ABPP ratio Q99757_C90 ([7]; 200 μM, insitu, 231): 6.3
- isoTOP-ABPP ratio Q9BVC5_C10 ([8]; 200 μM, insitu, 231): 1.1
- isoTOP-ABPP ratio Q9HAV7_C124 ([9]; 200 μM, insitu, 231): 0.6

Structure (SMILES): O=C(CCl)NC12CC3CC(CC(C3)C1)C2 [compound 21]
- isoTOP-ABPP ratio O95229_C54 ([1]; 200 μM, insitu, 231): 0.8
- isoTOP-ABPP ratio P10599_C32 ([2]; 200 μM, insitu, 231): 3.9
- isoTOP-ABPP ratio P38606_C138 ([3]; 200 μM, insitu, 231): 20.0
- isoTOP-ABPP ratio P52597_C267 ([4]; 200 μM, insitu, 231): 1.5
- isoTOP-ABPP ratio Q09161_C44 ([5]; 200 μM, insitu, 231): 1.3
- isoTOP-ABPP ratio Q93009_C223 ([6]; 200 μM, insitu, 231): 1.8
- isoTOP-ABPP ratio Q99757_C90 ([7]; 200 μM, insitu, 231): 4.3
- isoTOP-ABPP ratio Q9BVC5_C10 ([8]; 200 μM, insitu, 231): 1.5
- isoTOP-ABPP ratio Q9HAV7_C124 ([9]; 200 μM, insitu, 231): 1.7

Structure (SMILES): Cn1cc(S(=O)(=O)N2CCOCC2)cc1C(=O)NC(=O)CCl [compound 11]
- isoTOP-ABPP ratio O95229_C54 ([1]; 100 μM in situ 231): 1.2
- isoTOP-ABPP ratio P10599_C32 ([2]; 100 μM in situ 231): 13.0
- isoTOP-ABPP ratio P38606_C138 ([3]; 100 μM in situ 231): 9.2
- isoTOP-ABPP ratio P52597_C267 ([4]; 100 μM in situ 231): 1.0
- isoTOP-ABPP ratio Q09161_C44 ([5]; 100 μM in situ 231): 1.1
- isoTOP-ABPP ratio Q93009_C223 ([6]; 100 μM in situ 231): 1.0
- isoTOP-ABPP ratio Q99757_C90 ([7]; 100 μM in situ 231): 2.7
- isoTOP-ABPP ratio Q9BVC5_C10 ([8]; 100 μM in situ 231): 1.1
- isoTOP-ABPP ratio Q9HAV7_C124 ([9]; 100 μM in situ 231): 0.9
